These compounds were tested against T1, human Cereblon WT GST-tagged protein (Homo sapiens, UniProt Q96SW2) (assay: CRBN binding, HTRF CEREBLON BINDING kit). Conditions: CRBN binding, HTRF CEREBLON BINDING kit.
T1 construct: purchased CISBIO 64BDCRBNPEH
T1 sequence (Q96SW2 whole entry): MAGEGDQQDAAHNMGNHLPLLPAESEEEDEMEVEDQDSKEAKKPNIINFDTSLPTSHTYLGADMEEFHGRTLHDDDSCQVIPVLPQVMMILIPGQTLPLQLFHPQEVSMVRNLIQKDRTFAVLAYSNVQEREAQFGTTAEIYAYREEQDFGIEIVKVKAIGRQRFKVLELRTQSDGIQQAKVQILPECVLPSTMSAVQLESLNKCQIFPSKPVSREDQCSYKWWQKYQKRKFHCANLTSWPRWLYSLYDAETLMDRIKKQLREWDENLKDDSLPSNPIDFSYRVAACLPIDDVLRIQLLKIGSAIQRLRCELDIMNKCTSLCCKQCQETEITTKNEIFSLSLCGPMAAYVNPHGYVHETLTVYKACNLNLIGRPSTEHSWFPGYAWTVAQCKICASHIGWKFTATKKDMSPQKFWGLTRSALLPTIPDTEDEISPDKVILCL
Outline: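 Binding inhibition was calculated from the 665/620 nm emission ratios, with blank wells and solvent wells as references. Test compounds competed for GST-tagged human Cereblon WT against a Thalidomide-Re reagent paired with GST Eu antibody. Plates were sealed and held at room temperature for 3 hours before the HTRF read.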
With `O=C1CCC(c2ccc(CN3C4CCC3CN(c3ccc(-c5cc(F)c6c(c5)C(=O)N(C(C(=O)Nc5nccs5)c5ncn7c5CCC7)C6)cc3)C4)cc2)C(=O)N1` (stereo not drawn) [GT-06252, 2-(6,7-dihydro-5H-pyrrolo[1,2-c]imidazol-1-yl)-2-(6-(4-(8-(4-(2,6-dioxopiperidin-3-yl)benzyl)-3,8-diazabicyclo[3.2.1]octan-3-yl)phenyl)-4-fluoro-1-oxoisoindolin-2-yl)-N-(thiazol-2-yl)acetamide] the IC50 was under 500 nM. Compound `O=C1CCN(c2ccc(CN3C4CCC3CN(c3ccc(-c5cc(F)c6c(c5)C(=O)N(C(C(=O)Nc5nccs5)c5ncn7c5CCC7)C6)cc3)C4)cc2)C(=O)N1` (stereo not drawn) [GT-06253, 2-(6,7-dihydro-5H-pyrrolo[1,2-c]imidazol-1-yl)-2-(6-(4-(8-(4-(2,4-dioxotetrahydropyrimidin-1(2H)-yl)benzyl)-3,8-diazabicyclo[3.2.1]octan-3-yl)phenyl)-4-fluoro-1-oxoisoindolin-2-yl)-N-(thiazol-2-yl)acetamide] has an IC50 of 500 to 1000 nM. `O=C1CCN(c2cccc(CN3C4CCC3CN(c3ccc(-c5cc(F)c6c(c5)C(=O)N(C(C(=O)Nc5nccs5)c5ncn7c5CCC7)C6)cc3)C4)c2)C(=O)N1` (stereo not drawn) [GT-06254, 2-(6,7-dihydro-5H-pyrrolo[1,2-c]imidazol-1-yl)-2-(6-(4-(8-(3-(2,4-dioxotetrahydropyrimidin-1(2H)-yl)benzyl)-3,8-diazabicyclo[3.2.1]octan-3-yl)phenyl)-4-fluoro-1-oxoisoindolin-2-yl)-N-(thiazol-2-yl)acetamide] was tested, and the IC50 was under 500 nM. With `O=C1CCN(c2ccc(CN3C4CCC3CN(c3ccc(-c5cc(F)c6c(c5)C(=O)N(C(C(=O)Nc5nccs5)c5ncn7c5CCC7)C6)cc3)C4)nc2)C(=O)N1` (stereo not drawn) [GT-06255, 2-(6,7-dihydro-5H-pyrrolo[1,2-c]imidazol-1-yl)-2-(6-(4-(8-((5-(2,4-dioxotetrahydropyrimidin-1(2H)-yl)pyridin-2-yl)methyl)-3,8-diazabicyclo[3.2.1]octan-3-yl)phenyl)-4-fluoro-1-oxoisoindolin-2-yl)-N-(thiazol-2-yl)acetamide] the IC50 was under 500 nM. In the case of `O=C1CCC(c2ccc(CN3CCN(C4CCN(c5ccc(-c6cc(F)c7c(c6)C(=O)N(C(C(=O)Nc6nccs6)c6ncn8c6CCC8)C7)cc5)CC4(F)F)CC3)cc2)C(=O)N1` (stereo not drawn) [GT-06317, 2-(6,7-dihydro-5H-pyrrolo[1,2-c]imidazol-1-yl)-2-(6-(4-(4-(4-(4-(2,6-dioxopiperidin-3-yl)benzyl)piperazin-1-yl)-3,3-difluoropiperidin-1-yl)phenyl)-4-fluoro-1-oxoisoindolin-2-yl)-N-(thiazol-2-yl)acetamide], the IC50 is reported as 1000 to 1900 nM. `O=C1CCN(c2ccc(CN3CCN(C4CCN(c5ccc(-c6cc(F)c7c(c6)C(=O)N(C(C(=O)Nc6nccs6)c6ncn8c6CCC8)C7)cc5)CC4(F)F)CC3)cc2)C(=O)N1` (stereo not drawn) [GT-06318, 2-(6,7-dihydro-5H-pyrrolo[1,2-c]imidazol-1-yl)-2-(6-(4-(4-(4-(4-(2,4-dioxotetrahydropyrimidin-1(2H)-yl)benzyl)piperazin-1-yl)-3,3-difluoropiperidin-1-yl)phenyl)-4-fluoro-1-oxoisoindolin-2-yl)-N-(thiazol-2-yl)acetamide] showed an IC50 of 1000 to 1900 nM. `O=C1CCN(c2ccc(CN3CCN(C4CCN(c5ccc(-c6cc(F)c7c(c6)C(=O)N(C(C(=O)Nc6nccs6)c6ncn8c6CCC8)C7)cc5)CC4(F)F)CC3)nc2)C(=O)N1` (stereo not drawn) [GT-06319, 2-(6,7-dihydro-5H-pyrrolo[1,2-c]imidazol-1-yl)-2-(6-(4-(4-(4-((5-(2,4-dioxotetrahydropyrimidin-1(2H)-yl)pyridin-2-yl)methyl)piperazin-1-yl)-3,3-difluoropiperidin-1-yl)phenyl)-4-fluoro-1-oxoisoindolin-2-yl)-N-(thiazol-2-yl)acetamide] gave an IC50 of under 500 nM. `O=C1CCC(c2ccc(CN3CCC(N4CCN(c5ccc(-c6cc(F)c7c(c6)C(=O)N(C(C(=O)Nc6nccs6)c6ncn8c6CCC8)C7)cc5)CC4)CC3)cc2)C(=O)N1` (stereo not drawn) [GT-06326, 2-(6,7-dihydro-5H-pyrrolo[1,2-c]imidazol-1-yl)-2-(6-(4-(4-(1-(4-(2,6-dioxopiperidin-3-yl)benzyl)piperidin-4-yl)piperazin-1-yl)phenyl)-4-fluoro-1-oxoisoindolin-2-yl)-N-(thiazol-2-yl)acetamide] showed an IC50 of 500 to 1000 nM. Compound `O=C1CCN(c2ccc(CN3CCC(N4CCN(c5ccc(-c6cc(F)c7c(c6)C(=O)N(C(C(=O)Nc6nccs6)c6ncn8c6CCC8)C7)cc5)CC4)CC3)cc2)C(=O)N1` (stereo not drawn) [GT-06327, 2-(6,7-dihydro-5H-pyrrolo[1,2-c]imidazol-1-yl)-2-(6-(4-(4-(1-(4-(2,4-dioxotetrahydropyrimidin-1(2H)-yl)benzyl)piperidin-4-yl)piperazin-1-yl)phenyl)-4-fluoro-1-oxoisoindolin-2-yl)-N-(thiazol-2-yl)acetamide] has an IC50 of 500 to 1000 nM. For `O=C1CCN(c2cccc(CN3CCC(N4CCN(c5ccc(-c6cc(F)c7c(c6)C(=O)N(C(C(=O)Nc6nccs6)c6ncn8c6CCC8)C7)cc5)CC4)CC3)c2)C(=O)N1` (stereo not drawn) [GT-06328, 2-(6,7-dihydro-5H-pyrrolo[1,2-c]imidazol-1-yl)-2-(6-(4-(4-(1-(3-(2,4-dioxotetrahydropyrimidin-1(2H)-yl)benzyl)piperidin-4-yl)piperazin-1-yl)phenyl)-4-fluoro-1-oxoisoindolin-2-yl)-N-(thiazol-2-yl)acetamide], the IC50 was 500 to 1000 nM. In the case of `O=C1CCN(c2ccc(CN3CCC(N4CCN(c5ccc(-c6cc(F)c7c(c6)C(=O)N(C(C(=O)Nc6nccs6)c6ncn8c6CCC8)C7)cc5)CC4)CC3)nc2)C(=O)N1` (stereo not drawn) [GT-06329, 2-(6,7-dihydro-5H-pyrrolo[1,2-c]imidazol-1-yl)-2-(6-(4-(4-(1-((5-(2,4-dioxotetrahydropyrimidin-1(2H)-yl)pyridin-2-yl)methyl)piperidin-4-yl)piperazin-1-yl)phenyl)-4-fluoro-1-oxoisoindolin-2-yl)-N-(thiazol-2-yl)acetamide], the IC50 is reported as 1000 to 1900 nM. `O=C1CCC(Nc2cccc(CN3CCC(N4CCN(c5ccc(-c6cc(F)c7c(c6)C(=O)N(C(C(=O)Nc6nccs6)c6ncn8c6CCC8)C7)cc5)CC4)CC3)c2)C(=O)N1` (stereo not drawn) [GT-06331, 2-(6,7-dihydro-5H-pyrrolo[1,2-c]imidazol-1-yl)-2-(6-(4-(4-(1-(3-((2,6-dioxopiperidin-3-yl)amino)benzyl)piperidin-4-yl)piperazin-1-yl)phenyl)-4-fluoro-1-oxoisoindolin-2-yl)-N-(thiazol-2-yl)acetamide] gave an IC50 of 1000 to 1900 nM. `CN(C)C(=O)c1cc2cnc(Nc3ccc(N4CCN(Cc5ccc(C6CCC(=O)NC6=O)cc5)CC4)cn3)nc2n1C1CCCC1` (stereo not drawn) [GT-06339, 7-cyclopentyl-2-((5-(4-(4-(2,6-dioxopiperidin-3-yl)benzyl)piperazin-1-yl)pyridin-2-yl)amino)-N,N-dimethyl-7H-pyrrolo[2,3-d]pyrimidine-6-carboxamide] was tested, and the IC50 was under 500 nM. `CN(C)C(=O)c1cc2cnc(Nc3ccc(N4CCN(Cc5ccc(N6CCC(=O)NC6=O)cc5)CC4)cn3)nc2n1C1CCCC1` [GT-06340, 7-cyclopentyl-2-((5-(4-(4-(2,4-dioxotetrahydropyrimidin-1(2H)-yl)benzyl)piperazin-1-yl)pyridin-2-yl)amino)-N,N-dimethyl-7H-pyrrolo[2,3-d]pyrimidine-6-carboxamide] showed an IC50 of 500 to 1000 nM. Compound `CN(C)C(=O)c1cc2cnc(Nc3ccc(N4CCN(Cc5cccc(N6CCC(=O)NC6=O)c5)CC4)cn3)nc2n1C1CCCC1` [GT-06341, 7-cyclopentyl-2-((5-(4-(3-(2,4-dioxotetrahydropyrimidin-1(2H)-yl)benzyl)piperazin-1-yl)pyridin-2-yl)amino)-N,N-dimethyl-7H-pyrrolo[2,3-d]pyrimidine-6-carboxamide] has an IC50 of 500 to 1000 nM. `CN(C)C(=O)c1cc2cnc(Nc3ccc(N4CCN(Cc5ccc(N6CCC(=O)NC6=O)cn5)CC4)cn3)nc2n1C1CCCC1` [GT-06342, 7-cyclopentyl-2-((5-(4-((5-(2,4-dioxotetrahydropyrimidin-1(2H)-yl)pyridin-2-yl)methyl)piperazin-1-yl)pyridin-2-yl)amino)-N,N-dimethyl-7H-pyrrolo[2,3-d]pyrimidine-6-carboxamide] was tested, and the IC50 was 1000 to 1900 nM. With `Cc1ccc(-c2c(C)noc2C)cc1N(CC1CCN(Cc2ccc(N3CCC(=O)NC3=O)cn2)CC1)c1ccc(C2(C#N)CC2)cc1` [GT-06411, 1-(4-((5-(3,5-dimethylisoxazol-4-yl)-2-methylphenyl)((1-((5-(2,4-dioxotetrahydropyrimidin-1(2H)-yl)pyridin-2-yl)methyl)piperidin-4-yl)methyl)amino)phenyl)cyclopropane-1-carbonitrile] the IC50 was 500 to 1000 nM. In the case of `Cn1cc(-c2cc(S(C)(=O)=O)ccc2OCc2ccc(C3CCC(=O)NC3=O)cc2)c2cc[nH]c2c1=O` (stereo not drawn) [GT-06415, 3-(4-((2-(6-methyl-7-oxo-6,7-dihydro-1H-pyrrolo[2,3-c]pyridin-4-yl)-4-(methylsulfonyl)phenoxy)methyl)phenyl)piperidine-2,6-dione], the IC50 is reported as under 500 nM. `Cn1cc(-c2cc(S(C)(=O)=O)ccc2OCc2ccc(N3CCC(=O)NC3=O)cn2)c2cc[nH]c2c1=O` [GT-06416, 1-(6-((2-(6-methyl-7-oxo-6,7-dihydro-1H-pyrrolo[2,3-c]pyridin-4-yl)-4-(methylsulfonyl)phenoxy)methyl)pyridin-3-yl)dihydropyrimidine-2,4(1H,3H)-dione] was tested, and the IC50 was 1000 to 1900 nM. In the case of `CN(C)C(=O)c1cc2cnc(Nc3ccc(N4CCC(N(C)Cc5ccc(C6CCC(=O)NC6=O)cc5)CC4)cn3)nc2n1C1CCCC1` (stereo not drawn) [GT-06490, 7-cyclopentyl-2-((5-(4-((4-(2,6-dioxopiperidin-3-yl)benzyl)(methyl)amino)piperidin-1-yl)pyridin-2-yl)amino)-N,N-dimethyl-7H-pyrrolo[2,3-d]pyrimidine-6-carboxamide], the IC50 is reported as 500 to 1000 nM. Work on `CN(C)C(=O)c1cc2cnc(Nc3ccc(N4CCC(N(C)Cc5ccc(N6CCC(=O)NC6=O)cc5)CC4)cn3)nc2n1C1CCCC1` [GT-06491, 7-cyclopentyl-2-((5-(4-((4-(2,4-dioxotetrahydropyrimidin-1(2H)-yl)benzyl)(methyl)amino)piperidin-1-yl)pyridin-2-yl)amino)-N,N-dimethyl-7H-pyrrolo[2,3-d]pyrimidine-6-carboxamide] yielded an IC50 of 500 to 1000 nM.

Reference: patent US20260274829A1, “NEW E3 UBIQUITIN LIGASE LIGAND, PROTEIN DEGRADATION AGENT AND USE THEREOF” (GLUETACS THERAPEUTICS (SHANGHAI) CO., LTD., priority 2023, published 2026)
